From paper PMC7580737, “Synthesis, in vitro inhibitory activity, kinetic study and molecular docking of novel N-alkyl–deoxynojirimycin derivatives as potential α-glucosidase inhibitors” (Journal of Enzyme Inhibition and Medicinal Chemistry, 2020)
Like-named read-outs stand apart in the source and are kept apart here.

Legend:
[1] = target: α-glucosidase (EC 3.2.1.20) (Saccharomyces cerevisiae, UniProt P53341); experiment: biochemical; type: biochemical
[2] = target: T1, α-glucosidase (Saccharomyces cerevisiae, UniProt P53341); experiment: Kinetic study of α-glucosidase inhibition (Lineweaver–Burk plots); type: biochemical; conditions: for Type of inhibition: Lineweaver–Burk plots: Vmax not affected, Km increased; for Ki: determined by Lineweaver–Burk plots
T1 construct: purchased Sigma-Aldrich
Protocol: The type of inhibition and value of Ki were determined by Lineweaver–Burk plots.
The 10 µL of enzyme solution (1 U/mL) was incubated with different concentrations of compound 43 (0.00 mM,0.012 mM, 0.02 mM, 0.04 mM), 40 (0.00 mM, 0.06 mM, 0.10 mM, 0.20 mM)and 34 (0.00 mM, 0.30 mM, 0.50 mM, 1.00 mM) for 20 min at 37 °C, then added different concentrations of substrate (1 mM, 0.9 mM, 0.75 mM, 0.6 mM, 0.45 mM, 0.3 mM, 0.25 mM), and change in absorbance was measured for 20 min at 405 nm by using spectrophotometer.

[3] = phosphate buffer pH 6.8, 37 °C, PNPG substrate, mean ± SD, at least three experiments, read-out: IC50 (α-glucosidase inhibitory activity)

T1 sequence (P53341 whole entry): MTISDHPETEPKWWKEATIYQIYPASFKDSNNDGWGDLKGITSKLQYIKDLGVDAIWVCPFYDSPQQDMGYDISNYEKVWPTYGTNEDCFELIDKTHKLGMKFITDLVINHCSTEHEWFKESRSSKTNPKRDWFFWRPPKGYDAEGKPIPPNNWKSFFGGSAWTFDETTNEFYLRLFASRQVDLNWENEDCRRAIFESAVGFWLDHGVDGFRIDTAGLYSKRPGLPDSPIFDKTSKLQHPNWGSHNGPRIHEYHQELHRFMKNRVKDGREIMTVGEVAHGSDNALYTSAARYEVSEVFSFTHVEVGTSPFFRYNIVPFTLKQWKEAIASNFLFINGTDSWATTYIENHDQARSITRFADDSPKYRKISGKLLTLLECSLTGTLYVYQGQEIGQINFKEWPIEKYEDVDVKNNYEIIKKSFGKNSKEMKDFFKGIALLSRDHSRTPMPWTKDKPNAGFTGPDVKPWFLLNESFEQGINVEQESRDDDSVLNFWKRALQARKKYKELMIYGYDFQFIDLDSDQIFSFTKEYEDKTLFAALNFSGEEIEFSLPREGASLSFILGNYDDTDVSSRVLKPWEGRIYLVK
Sequence of α-glucosidase (EC 3.2.1.20) (P53341 whole entry): as above

With O=C(/C=C/c1ccccc1)OCCN1C[C@H](O)[C@@H](O)[C@H](O)[C@H]1CO [Compound 25, 2-(3,4,5-Trihydroxy-2-(hydroxymethyl)piperidin-1-yl) ethyl cinnamate] the IC50 [1] was 1094 ± 1.8 µM.

Compound O=C(/C=C/c1ccccc1)OCCCN1C[C@H](O)[C@@H](O)[C@H](O)[C@H]1CO [Compound 26, 3-(3,4,5-Trihydroxy-2-(hydroxymethyl)piperidin-1-yl) ethyl cinnamate] has an IC50 [1] of 1099 ± 1.1 µM.

For O=C(/C=C/c1ccccc1)OCCCCCCN1C[C@H](O)[C@@H](O)[C@H](O)[C@H]1CO [Compound 29], the IC50 [1] was 976.5 ± 0.7 µM.

COC(=O)/C=C/c1ccc(OCCN2CC(O)C(O)C(O)C2CO)cc1 (stereo not drawn) [Compound 30, Methyl(E)-3-(4-(2-(3,4,5-trihydroxy-2-(hydroxymethyl)piperidin-1-yl)ethoxy)phenyl) acrylate] showed an IC50 [1] of 1272.2 ± 1.2 µM and a melting point of 185 to 187 °C.

With COC(=O)C=Cc1ccc(OCCCN2CC(O)C(O)C(O)C2CO)cc1 (stereo not drawn) [Compound 31] the IC50 [1, 3] was greater than 2000 µM and the melting point was 104 to 107 °C.

In the case of COC(=O)C=Cc1ccc(OCCCCN2CC(O)C(O)C(O)C2CO)cc1 (stereo not drawn) [Compound 32], the IC50 [1] is reported as 667 ± 1.6 µM and the melting point is reported as 157 to 160 °C.

For COC(=O)C=Cc1ccc(OCCCCCN2CC(O)C(O)C(O)C2CO)cc1 (stereo not drawn) [Compound 33], the IC50 [1] was 602.3 ± 1.2 µM and the melting point was 85 to 86 °C.

With COC(=O)C=Cc1ccc(OCCCCCCN2CC(O)C(O)C(O)C2CO)cc1 (stereo not drawn) [Compound 34] the IC50 [1] was 417 ± 0.14 µM, the Type of inhibition [2] was “competitive inhibitors” and the Ki [2] was 150 µM. It also gave a melting point of 110 to 113 °C.

CCOC(=O)/C=C/c1ccc(OCCN2CC(O)C(O)C(O)C2CO)c(OC)c1 (stereo not drawn) [Compound 35, Ethyl(E)-3-(3-methoxy-4-(2-(3,4,5-trihydroxy-2-(hydroxymethyl)piperidin-1-yl)ethoxy)phenyl)acrylate] showed an IC50 [1] of 966.2 ± 0.4 µM and a melting point of 146 to 148 °C.

For CCOC(=O)C=Cc1ccc(OCCCN2CC(O)C(O)C(O)C2CO)c(OC)c1 (stereo not drawn) [Compound 36], the IC50 [1, 3] was greater than 2000 µM.

Work on CCOC(=O)C=Cc1ccc(OCCCCN2CC(O)C(O)C(O)C2CO)c(OC)c1 (stereo not drawn) [Compound 37] yielded an IC50 [1, 3] greater than 2000 µM.

Compound CCOC(=O)C=Cc1ccc(OCCCCCN2CC(O)C(O)C(O)C2CO)c(OC)c1 (stereo not drawn) [Compound 38] has an IC50 [1, 3] greater than 2000 µM.

Work on CCOC(=O)C=Cc1ccc(OCCCCCCN2CC(O)C(O)C(O)C2CO)c(OC)c1 (stereo not drawn) [Compound 39, Ethyl(E)-3-(3-methoxy-4-(6-(3,4,5-trihydroxy-2-(hydroxymethyl)piperidin-1-yl)ethoxy)phenyl)acrylate] yielded an IC50 [1, 3] greater than 2000 µM.

For O=C(/C=C/c1ccccc1)c1ccccc1OCCN1CC(O)C(O)C(O)C1CO (stereo not drawn) [Compound 40, (E)-3-phenyl-1-(2-(2-(3,4,5-trihydroxy-2-(hydroxymethyl)piperidin-1-yl)ethoxy)phenyl)prop-2-en-1-one], the IC50 [1] was 160.5 ± 0.6 µM, the “fold more active than acarbose” value [1] was “around 5 fold” and the Type of inhibition [2] was “competitive inhibitors”. For the same compound, the Ki [2] was 52 µM.

With O=C(C=Cc1ccccc1)c1ccccc1OCCCCCN1CC(O)C(O)C(O)C1CO (stereo not drawn) [Compound 43] the IC50 [1] was 30 ± 0.6 µM, the “fold more active than 1-DNJ” value [1] was roughly 7 fold and the “fold more active than acarbose” value [1] was roughly 27 fold. For the same compound, the Type of inhibition [2] was “competitive inhibitors” and the Ki [2] was 10 µM.
